Results taken from US8772304B2, “Benzimidazole inhibitors of leukotriene production” (Boehringer Ingelheim International GmbH, priority 2010, dated 2014).
pIC50: −log10 of the molar value.

What was measured:
[1] = target: recombinant human FLAP protein (Homo sapiens (Human), UniProt P20292); test: FLAP binding assay (Scintillation Proximity Assay, displacement of iodinated FLAP inhibitor); conditions: displacement of [125I]L-691,831; membranes of sf9 cells expressing recombinant human FLAP; read-out: hFLAP binding IC50
Experimental: Compounds are assessed for the ability to bind to FLAP in a binding assay that measures compound-specific displacement of an iodinated (^125I) FLAP inhibitor via a Scintillation Proximity Assay format (adapted from S. Charleson et al., Mol. Pharmacol., 1992, 41, 873-879).
Cell pellets produced from sf9 insect cells expressing recombinant human FLAP protein are resuspended in buffer A [15 mM Tris-HCl (pH 7.5), 2 mM MgCl2, 0.3 mM EDTA, 1 mM PMSF]. The cells are lysed with a Dounce homogenizer and the material is centrifuged at 10,000×g for 10 minutes. The supernatant is then collected and centrifuged at 100,000×g for 60 minutes. To prepare membrane protein for an assay, an aliquot of the 100,000×g pellet is resuspended in 1 ml of buffer A, Dounce homogenized, and finally subjected to polytron mixing (30 seconds). Membrane protein (25 μl, 5 μg) is mixed with WGA SPA beads (Amersham) and stirred for 1 h. […] (final concentrations: beads, 200 μg/well; protein, 5 μg/well; [^125I] probe, 0 08 nM/well (17 nCi/well). The plates are shaken for 2 h before reading on a Microbeta plate reader. Non-specific binding is determined by the addition of 10 μM cold L-691,831 compound.

[2] = system: synthesis of LTB4 in human whole blood; test: human whole blood LTB4 production inhibition assay; format: cell-based; conditions: heparinized human whole blood, calcimycin 20 μM stimulation, plasma LTB4; read-out: hWB IC50
Experimental: Compounds are additionally tested in a human whole blood assay to determine their ability to inhibit the synthesis of LTB4 in a cellular system. Compounds are combined with heparinized human whole blood and incubated for 15 minutes at 37° C. Calcimycin (20 μM final, prepared in phosphate-buffered saline, pH 7.4) is then added and the mixture is incubated for another 30 minutes at 37° C. The samples are centrifuged for 5 min at low speed (1500×g) and the plasma layer is removed. Plasma LTB4 concentrations are then measured using an antibody-based homogenous time-resolved fluorescence method (CisBio, Bedford, Mass.).

Sequence of recombinant human FLAP protein (P20292 whole entry): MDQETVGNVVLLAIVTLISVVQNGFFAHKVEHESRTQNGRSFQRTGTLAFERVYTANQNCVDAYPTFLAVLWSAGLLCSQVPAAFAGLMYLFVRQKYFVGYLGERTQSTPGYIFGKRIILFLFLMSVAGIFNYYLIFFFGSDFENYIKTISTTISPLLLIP

Compound | pIC50 [1] | pIC50 [2]
CC(C)(C)n1c(-c2ccccn2)nc2cc(-c3cnc(N)nc3)ccc21 [Example 12, 5-(1-tert-Butyl-2-pyridin-2-yl-1H-benzimidazol-5-yl)-pyrimidin-2-ylamine] | 6.15 | –
CNC(=O)c1ccc(C#N)nc1-c1nc2cc(-c3cnc(N)nc3)ccc2n1C(C)(C)C [Example 10, 2-[5-(2-Amino-pyrimidin-5-yl)-1-tert-butyl-1H-benzimidazol-2-yl]-6-cyano-N-methyl-nicotinamide] | 6.86 | 6.37
CNC(=O)c1cccnc1-c1nc2cc(-c3cnc(N)nc3)ccc2n1C(C)(C)C [Example 8, 2-[5-(2-Amino-pyrimidin-5-yl)-1-tert-butyl-1H-benzimidazol-2-yl]-N-methyl-nicotinamide] | 6.21 | 5.77
Cc1ccc(-c2nc3cc(-c4cnc(N)nc4)ccc3n2C(C)(C)C)c(-n2cncn2)n1 [Example 28, 5-[1-tert-Butyl-2-(6-methyl-2-1,2,4-triazol-1-yl-pyridin-3-yl)-1H-benzimidazol-5-yl]-pyrimidin-2-ylamine] | 7.77 | 6.71
Cc1ncnn1-c1ccc(C#N)nc1-c1nc2cc(-c3cnc(N)nc3)ccc2n1C(C)(C)C [Example 3, 6-[5-(2-Amino-pyrimidin-5-yl)-1-tert-butyl-1H-benzimidazol-2-yl]-5-(5-methyl-1,2,4-triazol-1-yl)-pyridine-2-carbonitrile] | 8.23 | 7.05
COC(=O)c1ccc(C#N)nc1-c1nc2cc(-c3cnc(N)nc3)ccc2n1C(C)(C)C [Example 9, 2-[5-(2-Amino-pyrimidin-5-yl)-1-tert-butyl-1H-benzimidazol-2-yl]-6-cyano-nicotinic acid methyl ester] | 6.96 | 6.41
CC(C)(C)Oc1cccc(-c2nc3cc(-c4cnc(N)nc4)ccc3n2C(C)(C)C)n1 [Example 13, 5-[2-(6-tert-Butoxy-pyridin-2-yl)-1-tert-butyl-1H-benzimidazol-5-yl]-pyrimidin-2-ylamine] | 7.29 | –
CC(C)(C)n1c(-c2cccnc2-n2cncn2)nc2cc(-c3cnc(N)nc3)ccc21 [Example 20, 5-[1-tert-Butyl-2-(2-1,2,4-triazol-1-yl-pyridin-3-yl)-1H-benzimidazol-5-yl]-pyrimidin-2-ylamine] | 7.72 | 6.35
CCC(C)(C)n1c(-c2cc(Br)cnc2-n2cncn2)nc2cc(-c3cnc(N)nc3)ccc21 [Example 27, 5-[2-(5-Bromo-2-1,2,4-triazol-1-yl-pyridin-3-yl)-1-(1,1-dimethyl-propyl)-1H-benzimidazol-5-yl]-pyrimidin-2-ylamine] | 7.64 | 6.18
CC(C)(C)n1c(-c2cc(Br)cnc2-n2cncn2)nc2cc(-c3cnc(N)nc3)ccc21 [Example 23, 5-[2-(5-Bromo-2-1,2,4-triazol-1-yl-pyridin-3-yl)-1-tert-butyl-1H-benzimidazol-5-yl]-pyrimidin-2-ylamine] | 8.40 | 7.09
CC(C)(C)n1c(-c2cc(F)cnc2-n2cncn2)nc2cc(-c3cnc(N)nc3)ccc21 [Example 21, 5-[1-tert-Butyl-2-(5-fluoro-2-1,2,4-triazol-1-yl-pyridin-3-yl)-1H-benzimidazol-5-yl]-pyrimidin-2-ylamine] | 7.70 | 6.60
CC(C)(C)n1c(-c2nc(C3CC3)ccc2-n2cncn2)nc2cc(-c3cnc(N)nc3)ccc21 [Example 4, 5-[1-tert-Butyl-2-(6-cyclopropyl-3-1,2,4-triazol-1-yl-pyridin-2-yl)-1H-benzimidazol-5-yl]-pyrimidin-2-ylamine] | 7.89 | 6.85
CC(C)(C)n1c(-c2cccc(F)n2)nc2cc(-c3cnc(N)nc3)ccc21 [Example 14, 5-[1-tert-Butyl-2-(6-fluoro-pyridin-2-yl)-1H-benzimidazol-5-yl]-pyrimidin-2-ylamine] | 6.55 | –
CC(C)(C)n1c(-c2nc(C#N)ccc2-n2cncn2)nc2cc(-c3cnc(N)nc3)ccc21 [Example 1, 6-[5-(2-Amino-pyrimidin-5-yl)-1-tert-butyl-1H-benzimidazol-2-yl]-5-1,2,4-triazol-1-yl-pyridine-2-carbonitrile] | 8.15 | 7.52
CCOc1ncccc1-c1nc2cc(-c3cnc(N)nc3)ccc2n1C(C)(C)C [Example 33, 5-[1-tert-Butyl-2-(2-ethoxy-pyridin-3-yl)-1H-benzimidazol-5-yl]-pyrimidin-2-ylamine] | 7.47 | –
COC(=O)c1cccnc1-c1nc2cc(-c3cnc(N)nc3)ccc2n1C(C)(C)C [Example 7, 2-[5-(2-Amino-pyrimidin-5-yl)-1-tert-butyl-1H-benzimidazol-2-yl]-nicotinic acid methyl esler] | 6.27 | 5.51
COc1cncc(-c2nc3cc(-c4cnc(N)nc4)ccc3n2C(C)(C)C)c1 [Example 29, 5-[1-tert-Butyl-2-(5-methoxy-pyridin-3-yl)-1H-benzimidazol-5-yl]-pyrimidin-2-ylamine] | 6.52 | –
Cc1ncn(-c2ncccc2-c2nc3cc(-c4cnc(N)nc4)ccc3n2C(C)(C)C)n1 [Example 25, 5-{1-tert-Butyl-2-[2-(3-methyl-1,2,4-triazol-1-yl)-pyridin-3-yl]-1H-benzimidazol-5-yl}-pyrimidin-2-ylamine] | 7.92 | 6.56
CC(C)(C)n1c(-c2cc(C#N)cnc2-n2cncn2)nc2cc(-c3cnc(N)nc3)ccc21 [Example 26, 5-[5-(2-Amino-pyrimidin-5-yl)-1-tert-butyl-1H-benzimidazol-2-yl]-6-1,2,4-triazol-1-yl-nicotinonitrile] | 8.00 | 7.12
COc1cc(-c2nc3cc(-c4cnc(N)nc4)ccc3n2C(C)(C)C)c(F)cn1 [Example 17, 5-[1-tert-Butyl-2-(5-fluoro-2-methoxy-pyridin-4-yl)-1H-benzimidazol-5-yl]-pyrimidin-2-ylamine] | 7.24 | 7.24
CC(C)(C)n1c(-c2ccncc2)nc2cc(-c3cnc(N)nc3)ccc21 [Example 18, 5-(1-tert-Butyl-2-pyridin-4-yl-1H-benzimidazol-5-yl)-pyrimidin-2-ylamine] | 6.35 | 6.35
Cc1ncn(-c2ccc(C#N)nc2-c2nc3cc(-c4cnc(N)nc4)ccc3n2C2(C)CCC2)n1 [Example 5, 6-[5-(2-Amino-pyrimidin-5-yl)-1-(1-methyl-cyclobutyl)-1H-benzimidazol-2-yl]-5-(3-methyl-1,2,4-triazol-1-yl)-pyridine-2-carbonitrile] | 7.54 | 6.59
CC(C)(C)n1c(-c2cc(Cl)cnc2-n2cncn2)nc2cc(-c3cnc(N)nc3)ccc21 [Example 22, 5-[1-tert-Butyl-2-(5-chloro-2-1,2,4-triazol-1-yl-pyridin-3-yl)-1H-benzimidazol-5-yl]-pyrimidin-2-ylamine] | 8.49 | 6.94
COc1ncccc1-c1nc2cc(-c3cnc(N)nc3)ccc2n1C(C)(C)C [Example 32, 5-[1-tert-Butyl-2-(2-methoxy-pyridin-3-yl)-1H-benzimidazol-5-yl]-pyrimidin-2-ylamine] | 6.66 | –
Cc1ncn(-c2ccc(C#N)nc2-c2nc3cc(-c4cnc(N)nc4)ccc3n2C(C)(C)C)n1 [Example 2, 6-[5-(2-Amino-pyrimidin-5-yl)-1-tert-butyl-1H-benzimidazol-2-yl]-5-(3-methyl-1,2,4-triazol-1-yl)-pyridine-2-carbonitrile] | 8.38 | 7.44
COc1cccc(-c2nc3cc(-c4cnc(N)nc4)ccc3n2C(C)(C)C)n1 [Example 11, 5-[1-tert-Butyl-2-(6-methoxy-pyridin-2-yl)-1H-benzimidazol-5-yl]-pyrimidin-2-ylamine] | 7.34 | –
CC(C)(C)n1c(-c2cccnc2)nc2cc(-c3cnc(N)nc3)ccc21 [Example 31, 5-(1-tert-Butyl-2-pyridin-3-yl-1H-benzimidazol-5-yl)-pyrimidin-2-ylamine] | 6.27 | –
COc1cccnc1-c1nc2cc(-c3cnc(N)nc3)ccc2n1C(C)(C)C [Example 16, 5-[1-tert-Butyl-2-(3-methoxy-pyridin-2-yl)-1H-benzimidazol-5-yl]-pyrimidin-2-ylamine] | 6.02 | –
CC(C)(C)n1c(-c2cccc(F)n2)nc2cc(-c3cnc(NCc4cccc(F)n4)nc3)ccc21 [Example 15, {5-[1-tert-Butyl-2-(6-fluoro-pyridin-2-yl)-1H-benzimidazol-5-yl]-pyrimidin-2-yl}-(6-fluoro-pyridin-2-ylmethyl)-amine] | 6.06 | –
CC(C)(C)n1c(-c2ccc(N3CCOCC3)nc2)nc2cc(-c3cnc(N)nc3)ccc21 [Example 30, 5-[1-tert-Butyl-2-(6-morpholin-4-yl-pyridin-3-yl)-1H-benzimidazol-5-yl]-pyrimidin-2-ylamine] | 6.74 | –
